The source of these data is patent US11814376B2, “Hepatitis b core protein modulators” (Assembly Biosciences, Inc., priority 2015, dated 2023).

Each structure is given as a SMILES string.

The subject of data set [1] is AD38 cells. The data set is described as follows: Viability of AD38 cells (Promega CellTiter-Glo). It counts as cell-based. As to conditions: 10 μM compound, 6 days, CellTiter-Glo luminescence normalized to DMSO control (100%). Put shortly:
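After 6 days of compound exposure at 37° C (compound added as 10× solution in 10% DMSO; 50,000 cells/well, collagen-coated), medium was replaced with tetracycline-free DMEM/F12, 2% FBS, 1% DMSO. CellTiter-Glo luminescence was then recorded and normalized to DMSO-treated wells as 100% viability.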

Data set [2] concerns HBV viral load in AD38 cells. The data set is described as follows: Viral load production in AD38 cells, quantitative PCR of the core sequence in supernatant. As to conditions: Hepatitis B virus, 144 h, 10 μM compound, 6 days at 37° C., supernatant qPCR, relative to DMSO control; read-out: AD38 Viral Load (%) (VL with cmpd/VL in DMSO control) at 10 μM. It counts as cell-based. (In qPCR the cycle at which signal appears reflects the starting amount.)

Consider `Cc1c(C(=O)NCc2cnc(-c3ccc(C#N)cc3)s2)ccc2c1NC(=O)c1ccccc1S2(=O)=O` [compound 1877], for which the “AD38 Viability Normalized Result (cmpd/DMSO %) at 10 μM” value in data set [1] is listed as 96%. In data set [2], the activity at 10 µM was determined as 0.2%.
On the same counts, the results for `CN(C)c1ccc(-c2ncc(CNC(=O)c3ccc4c(c3)NC(=O)c3ccccc3S4(=O)=O)s2)cc1` [compound 1645] are 101% and 6.7%.
On the same counts, the results for `CN(C)CCCOc1ccc(-c2ncc(CNC(=O)c3ccc4c(c3)NC(=O)c3ccccc3S4(=O)=O)s2)nc1` [compound 11011, N-((2-(5-(3-(dimethylamino)propoxy)pyridin-2-yl)thiazol-5-yl)methyl)-11-oxo-10, 11-dihydrodibenzo [b, f] [1, 4] thiazepine-8-carboxamide 5,5-dioxide] are 98% and 5.3%.
On the same counts, the results for `N#Cc1ncc(CNC(=O)c2ccc3c(c2)NC(=O)c2ccccc2S3(=O)=O)s1` [compound 1628] are 95% and 21.8%.
For `Cc1c(C(=O)NCc2cnc(C(F)(F)F)s2)cc(Br)c2c1NC(=O)c1ccccc1S2` [compound 1914], the “AD38 Viability Normalized Result (cmpd/DMSO %) at 10 μM” value in data set [1] was found to be 77%. Besides, the activity at 10 µM in data set [2] amounted to 120%.
In the case of `Nc1ncc(CNC(=O)c2ccc3c(c2)NC(=O)c2ccccc2S3(=O)=O)s1` [compound 1529], the “AD38 Viability Normalized Result (cmpd/DMSO %) at 10 μM” value in data set [1] came to 97%. Besides, the activity at 10 µM in data set [2] turned out to be 2%.
The corresponding values for `CN(C)CCOc1ncc(CN(C)C(=O)c2ccc3c(c2)NC(=O)c2ccccc2O3)s1` [compound 1686, N-((2-(2-(dimethylamino)ethoxy)thiazol-5-yl)methyl)-N-methyl-11-oxo-10, 11-dihydrodibenzo [b, f] [1, 4] oxazepine-8-carboxamide] are 102% and 58.4%.
On the same counts, the results for `O=C(NCc1cnc(-c2ccc(C#CCCO)cc2)s1)c1ccc2c(c1)NC(=O)c1ccccc1S2(=O)=O` [11002-A, N-((2-(4-(4-hydroxybut-1-yn-1-yl)phenyl)thiazol-5-yl)methyl)-11-oxo-10, 11-dihydrodibenzo [b, f] [1, 4] thiazepine-8-carboxamide 5,5-dioxide] are 106% and 1%.
The corresponding values for `CC(=O)NCCCSc1ccc(-c2ncc(CNC(=O)c3ccc4c(c3)NC(=O)c3ccccc3S4(=O)=O)s2)cc1` [compound 11067, N-((2-(4-((3-acetamidopropyl)thio)phenyl)thiazol-5-yl)methyl)-11-oxo-10, 11-dihydrodibenzo [b, f] [1, 4] thiazepine-8-carboxamide 5,5-dioxide] are 99% and 2.5%.
Take `O=C(NCc1cnc(N2CCOCC2)s1)c1ccc2c(c1)NC(=O)c1ccccc1S2` [compound 1598]: in data set [1], the “AD38 Viability Normalized Result (cmpd/DMSO %) at 10 μM” value was 97%. Besides, the activity at 10 µM in data set [2] was 1.4%.
The corresponding values for `CN(C)CC(O)COc1ccc(-c2ncc(CNC(=O)c3ccc4c(c3)NC(=O)c3ccccc3S4(=O)=O)s2)cc1` (centres unmarked) [compound 11085] are 88% and 3.4%.
On the same counts, the results for `O=C(NCc1cnc(CN2CCOCC2)s1)c1ccc2c(c1)NC(=O)c1ccccc1S2(=O)=O` [compound 1927] are 92% and 4.7%.
`CN(C)CC1(COc2ccc(-c3ncc(CNC(=O)c4ccc5c(c4)NC(=O)c4ccccc4S5(=O)=O)s3)cc2)CCC1` [compound 11113]: the “AD38 Viability Normalized Result (cmpd/DMSO %) at 10 μM” value in data set [1] is 92%. Also, in data set [2], the activity at 10 µM is 4.9%.
On the same counts, the results for `O=C(NCc1cnc(N2CCCCCC2)s1)c1ccc2c(c1)NC(=O)c1ccccc1S2(=O)=O` [compound 1907] are 85% and 0.5%.
The corresponding values for `CNC(=O)c1ccc(-c2ncc(CNC(=O)c3ccc4c(c3)NC(=O)c3ccccc3S4(=O)=O)s2)cc1` [compound 1943] are 98% and 1.9%.
The corresponding values for `N#Cc1ccc(-c2ncc(CNC(=O)c3cc4c(cc3Cl)S(=O)(=O)c3ccccc3C(=O)N4)s2)cc1` [compound 1935] are 112% and 0.7%.
Consider `O=C(NCc1cnc(-c2ccc(CCCCN3CCOCC3)cc2)s1)c1ccc2c(c1)NC(=O)c1ccccc1S2(=O)=O` [compound 11056], for which the “AD38 Viability Normalized Result (cmpd/DMSO %) at 10 μM” value in data set [1] was determined as 96%. Moreover, the activity at 10 µM in data set [2] was determined as 0.8%.
On the same counts, the results for `NC(=O)c1ccc(-c2ncc(CNC(=O)c3ccc4c(c3)NC(=O)c3ccccc3S4(=O)=O)s2)cc1` [compound 1764, N-((2-(4-carbamoylphenyl)thiazol-5-yl)methyl)-11-oxo-10, 11 dihydrodibenzo [b, f] [1, 4] thiazepine-8-carboxamide 5,5-dioxide] are 107% and 1.1%.
The corresponding values for `O=C(NCc1cnc(-c2cnc(O)nc2)s1)c1ccc2c(c1)NC(=O)c1ccccc1S2(=O)=O` [compound 1671, N-((2-(2-hydroxypyrimidin-5-yl)thiazol-5-yl)methyl)-11-oxo-10, 11-dihydrodibenzo [b, f] [1, 4] thiazepine-8-carboxamide 5,5-dioxide] are 100% and 18.2%.
On the same counts, the results for `CC(C)c1cnn(-c2ncc(CNC(=O)c3ccc4c(c3)NC(=O)c3ccccc3S4(=O)=O)s2)c1` [11117-A] are 110% and 0.3%.
As to `O=C(NCc1cnc(-c2ccc(O)cc2)s1)c1ccc2c(c1)NC(=O)c1ccc(Cl)cc1S2` [compound 1761], the “AD38 Viability Normalized Result (cmpd/DMSO %) at 10 μM” value in data set [1] is recorded as 97%. Besides, the activity at 10 µM in data set [2] was found to be 10.7%.
Consider `CS(=O)(=O)Nc1ccc(-c2ncc(CNC(=O)c3ccc4c(c3)NC(=O)c3ccccc3O4)s2)cc1` [compound 1863], for which the “AD38 Viability Normalized Result (cmpd/DMSO %) at 10 μM” value in data set [1] was 106%. The activity at 10 µM in data set [2] is 9.4%.
On the same counts, the results for `O=C(NCc1cnc(-c2ccc(OC[C@@H]3CCNC3)cc2)s1)c1ccc2c(c1)NC(=O)c1ccccc1S2(=O)=O` [compound 11140, (R)-11-oxo-N-((2-(4-(pyrrolidin-3-ylmethoxy)phenyl)thiazol-5-yl)methyl)-10, 11-dihydrodibenzo [b, f] [1, 4] thiazepine-8-carboxamide 5,5-dioxide] are 99% and 5.5%.
As for `O=C(NCc1cnc(-c2ccccc2CO)s1)c1ccc2c(c1)NC(=O)c1ccccc1S2(=O)=O` [compound 1838], the “AD38 Viability Normalized Result (cmpd/DMSO %) at 10 μM” value in data set [1] was 113%. For the same molecule, in data set [2], the activity at 10 µM turned out to be 1.4%.
The corresponding values for `CN1CCC[C@@H]1COc1ccc(-c2ncc(CNC(=O)c3ccc4c(c3)NC(=O)c3ccccc3S4(=O)=O)s2)cc1` [compound 11131, (R)—N-((2-(4-((1-methylpyrrolidin-2-yl)methoxy)phenyl)thiazol-5-yl)methyl)-11-oxo-10,11-dihydrodibenzo [b, f] [1, 4] thiazepine-8-carboxamide 5,5-dioxide] are 88% and 2%.
